Laboratory results from publication PMC11347161, “Sequence diversity of apidaecin-like peptides arresting the terminating ribosome” (Nucleic Acids Research, 2024).
In brackets after ≈: the same amount, converted by molar mass. Residues, ends and D or L forms follow the SMILES beside them. No end group written: not given here. *: point of attachment. Orn(α-tetramethylguanidino) = CN(C)C(=N[C@@H](CCCN)C(=O)*)N(C)C

Tested on: E. coli, BL21 cells
Type: cell-based
Conditions: for MIC, TSB / MIC, LB / MIC, RPMI/Serum: E. coli BL21, broth microdilution, conducted in triplicate; for MIC, TSB: 33% TSB medium; for MIC, LB: LB medium; for MIC, RPMI/Serum: RPMI/Serum medium (RPMI-1640:MHB:FBS = 100:5:20)
Procedure: The E. coli strain CA244 (lacZ125(Am), e14-, trpA49(Am), relA1, spoT1) was obtained from Escherichia coli Genetic Stock Center. The E. coli BL21(DE3) electrocompetent cells were from Sigma. The following media and components were implemented for bacteria growth: lysogeny broth (LB), minimal M9 medium, Tryptic Soy Broth (TSB), Roswell Park Memorial Institute medium 1640 (RPMI-1640), Mueller Hinton Broth (MHB), Fetal Bovine Serum (FBS). For various experiments E. coli cells were grown either in LB, in 33% TSB ([21]), in M9 medium supplemented with 1% Glycerol, 1 mM MgSO4, 0.1 mM CaCl2 and 10 μg/ml thiamine, or in RPMI/Serum (RPMI-1640:MHB:FBS = 100:5:20) ([23]).
The minimal inhibitory concentration (MIC) test was performed using the broth microdilution method, adapted from the previously described procedure ([28]). The MIC tests were conducted in triplicate either in LB, 33% TSB or RPMI/Serum media.
In order to quantitatively assess the antimicrobial activity of the synthesized peptides identified by both, the negative and positive selection strategies, we determined their minimal inhibitory concentrations (MICs) for the E. coli BL21 cells in three different media: LB, as a standard laboratory medium, 33% TSB, as a medium in which PrAMPs show increased antibacterial properties ([21]), and in the more therapeutically relevant RPMI/serum media ([23]) (Table 1). […] It appears, therefore, that the positive selection strategy is more prone to identifying biologically active peptides in comparison with the negative selection approaches. Furthermore, it became apparent that some multiple substitutions can even improve the antibacterial properties of the Api-like peptides.

Compound	MIC, TSB [µM]	MIC, LB [µM]	MIC, RPMI/Serum [µM]	MIC values relative to wt Api (E. coli BL21, peptides from depletion selection)
GNNRPVECPQPRPRVPRL [Peptide E7C8R14V15]	>64	>64	>64	–
CC(C)C[C@H](NC(=O)[C@H](CCCNC(=N)N)NC(=O)[C@H](CC(C)C)NC(=O)[C@H](Cc1c[nH]cn1)NC(=O)[C@@H]1CCCN1C(=O)CNC(=O)[C@H](CC(C)C)NC(=O)[C@@H]1CCCN1C(=O)[C@H](CCC(N)=O)NC(=O)[C@@H]1CCCN1C(=O)[C@H](CC(C)C)NC(=O)[C@H](Cc1ccc(O)cc1)NC(=O)[C@@H](NC(=O)[C@@H]1CCCN1C(=O)[C@H](CCCNC(=N)N)NC(=O)[C@H](CC(N)=O)NC(=O)[C@H](CC(N)=O)NC(=O)[C@H](CCCN)N=C(N(C)C)N(C)C)C(C)C)C(=O)O [Peptide L8L12G13L16] ({Orn(α-tetramethylguanidino)}-NNRPVYLPQPLGPHLRL-OH; C-terminus assumed)	>64	>64	>64	–
GNNRPVYAYQPRPPHPRT [Peptide A8Y9T18]	4	32	8	–
GNRRPMYIPRPRPPHPRE [Peptide R3M6R10E18]	8	>64	16	–
GNNRPVYIPKPPTPHPRL [Peptide K10P12T13]	1	64	8	–
CC[C@H](C)[C@H](NC(=O)CNC(=O)[C@@H](NC(=O)[C@H](CCC(=O)O)NC(=O)[C@H](CCC(N)=O)NC(=O)[C@H](CC(N)=O)NC(=O)[C@H](CC(N)=O)NC(=O)[C@H](CCCN)N=C(N(C)C)N(C)C)C(C)C)C(=O)N[C@@H](CCSC)C(=O)N[C@@H](CCC(N)=O)C(=O)N1CCC[C@H]1C(=O)N[C@@H](CCCNC(=N)N)C(=O)N1CCC[C@H]1C(=O)N1CCC[C@H]1C(=O)N[C@@H](Cc1c[nH]cn1)C(=O)N1CCC[C@H]1C(=O)N[C@@H](CCCNC(=N)N)C(=O)N[C@@H](CC(C)C)C(=O)O [Peptide Q4E5G7M9] ({Orn(α-tetramethylguanidino)}-NNQEVGIMQPRPPHPRL-OH; C-terminus assumed)	>64	>64	>64	–
CC[C@H](C)[C@H](NC(=O)[C@H](Cc1ccc(O)cc1)NC(=O)[C@@H](NC(=O)[C@H](Cc1c[nH]c2ccccc12)NC(=O)[C@H](CCCNC(=N)N)NC(=O)[C@H](CC(N)=O)NC(=O)[C@H](CC(N)=O)NC(=O)[C@H](CCCN)N=C(N(C)C)N(C)C)C(C)C)C(=O)N[C@@H](CC(N)=O)C(=O)N[C@H](C(=O)N1CCC[C@H]1C(=O)N[C@@H](CCCNC(=N)N)C(=O)N[C@@H](CO)C(=O)N1CCC[C@H]1C(=O)N[C@@H](Cc1c[nH]cn1)C(=O)N1CCC[C@H]1C(=O)N[C@@H](CCCNC(=N)N)C(=O)N[C@@H](CC(C)C)C(=O)O)[C@@H](C)O [Peptide W5N9T10S13] ({Orn(α-tetramethylguanidino)}-NNRWVYINTPRSPHPRL-OH; C-terminus assumed)	>64	>64	>64	–
SVMRPVYKPQPRPPHPRL [Peptide S1V2M3K8]	0.5	16	4	–
GNNRPVYIPQPRPPHPRL [Api Ib, Apidaecin 1b, reference compound]	0.5	16	4	–
GNNRPGYQPKPRPPHPRL [Peptide G6Q8K10]	0.5	32	16	–
GRNRPVYIPKPRPPHPRL [Peptide R2K10]	0.25	2	0.5	–
CC[C@H](C)[C@H](NC(=O)[C@H](Cc1ccc(O)cc1)NC(=O)[C@H](CCCNC(=N)N)NC(=O)[C@@H]1CCCN1C(=O)[C@H](CCCNC(=N)N)NC(=O)[C@H](CC(N)=O)NC(=O)[C@H](CC(N)=O)NC(=O)[C@H](CCCN)N=C(N(C)C)N(C)C)C(=O)N1CCC[C@H]1C(=O)N[C@@H](C)C(=O)N1CCC[C@H]1C(=O)N[C@@H](CCCNC(=N)N)C(=O)N1CCC[C@H]1C(=O)N1CCC[C@H]1C(=O)N[C@@H](Cc1c[nH]cn1)C(=O)N1CCC[C@H]1C(=O)N[C@@H](CCCNC(=N)N)C(=O)N[C@@H](CC(C)C)C(=O)O [Peptide R6A10] ({Orn(α-tetramethylguanidino)}-NNRPRYIPAPRPPHPRL-OH; C-terminus assumed)	0.5 (≈ 1.13 µg/mL)	4 (≈ 9.05 µg/mL)	0.0625 (≈ 0.141 µg/mL)	comparable to those of wt Api
CC[C@H](C)[C@H](NC(=O)[C@H](Cc1ccc(O)cc1)NC(=O)[C@H](CCSC)NC(=O)[C@@H]1CCCN1C(=O)[C@H](CCCNC(=N)N)NC(=O)[C@H](CC(N)=O)NC(=O)[C@H](CC(N)=O)NC(=O)[C@H](CCCN)N=C(N(C)C)N(C)C)C(=O)N[C@@H](C)C(=O)N[C@@H](CCC(N)=O)C(=O)N1CCC[C@H]1C(=O)N[C@@H](CCCNC(=N)N)C(=O)N1CCC[C@H]1C(=O)N[C@@H](Cc1ccc(O)cc1)C(=O)N[C@@H](Cc1c[nH]cn1)C(=O)N1CCC[C@H]1C(=O)N[C@@H](CCCNC(=N)N)C(=O)N[C@@H](CC(C)C)C(=O)O [Peptide M6A9Y14] ({Orn(α-tetramethylguanidino)}-NNRPMYIAQPRPYHPRL-OH; C-terminus assumed)	16 (≈ 37.4 µg/mL)	>64	16 (≈ 37.4 µg/mL)	–
GNNRPGYIPPPRPPHPRL [Peptide G6P10]	0.5	8	4	–
CC[C@H](C)[C@H](NC(=O)[C@H](Cc1ccc(O)cc1)NC(=O)[C@@H](NC(=O)[C@H](CCCNC(=N)N)NC(=O)[C@H](CCCNC(=N)N)NC(=O)[C@H](CC(N)=O)NC(=O)[C@H](CC(N)=O)NC(=O)[C@H](CCCN)N=C(N(C)C)N(C)C)C(C)C)C(=O)N1CCC[C@H]1C(=O)N[C@@H](CCC(N)=O)C(=O)N1CCC[C@H]1C(=O)N[C@@H](CCCNC(=N)N)C(=O)N[C@@H](CC(N)=O)C(=O)N1CCC[C@H]1C(=O)N[C@@H](Cc1c[nH]cn1)C(=O)N[C@@H](CC(C)C)C(=O)N[C@@H](CCCNC(=N)N)C(=O)N[C@@H](CC(C)C)C(=O)O [Peptide R5N13L16] ({Orn(α-tetramethylguanidino)}-NNRRVYIPQPRNPHLRL-OH; C-terminus assumed)	>64	>64	>64	–
CC[C@H](C)[C@H](NC(=O)[C@H](Cc1ccc(O)cc1)NC(=O)[C@@H](NC(=O)[C@@H]1CCCN1C(=O)[C@H](CCCNC(=N)N)NC(=O)[C@H](CC(N)=O)NC(=O)[C@H](CC(N)=O)NC(=O)[C@H](CCCN)N=C(N(C)C)N(C)C)C(C)C)C(=O)N1CCC[C@H]1C(=O)N[C@@H](CCCNC(=N)N)C(=O)N1CCC[C@H]1C(=O)N[C@@H](CCCNC(=N)N)C(=O)N1CCC[C@H]1C(=O)N1CCC[C@H]1C(=O)N[C@@H](Cc1c[nH]cn1)C(=O)N1CCC[C@H]1C(=O)N[C@@H](CCCNC(=N)N)C(=O)N[C@@H](CC(C)C)C(=O)O [Api 137, reference compound] ({Orn(α-tetramethylguanidino)}-NNRPVYIPRPRPPHPRL-OH; N-terminus and C-terminus assumed)	0.25 (≈ 0.573 µg/mL)	4 (≈ 9.17 µg/mL)	0.0625 (≈ 0.143 µg/mL)	–
GNNRPGYDRQPRPPHPRL [Peptide G6D8R9]	8	16	4	–
CC(C)C[C@H](NC(=O)[C@@H]1CCCN1C(=O)[C@H](CCC(N)=O)NC(=O)[C@@H]1CCCN1C(=O)[C@H](CC(C)C)NC(=O)[C@H](Cc1ccc(O)cc1)NC(=O)[C@@H](NC(=O)[C@@H]1CCCN1C(=O)[C@H](CCCNC(=N)N)NC(=O)[C@H](CC(N)=O)NC(=O)[C@H](CC(N)=O)NC(=O)[C@H](CCCN)N=C(N(C)C)N(C)C)C(C)C)C(=O)NCC(=O)N1CCC[C@H]1C(=O)NCC(=O)N1CCC[C@H]1C(=O)N[C@@H](CCCNC(=N)N)C(=O)N[C@@H](C)C(=O)O [L8L12G13G15A18] ({Orn(α-tetramethylguanidino)}-NNRPVYLPQPLGPGPRA-OH; C-terminus assumed)	>64	>64	>64	–
TNARPVNAPQPRPPHPRL [Peptide T1A3N7A8]	8	64	16	–
